Our source for the IC50 and Ki values is BindingDB's records for doi:10.3109/14756366.2012.742517 (Seoul National University, 2014).

This experiment addresses T1, Pancreatic triacylglycerol lipase (Sus scrofa, UniProt P00591).
T1 sequence (P00591 whole entry): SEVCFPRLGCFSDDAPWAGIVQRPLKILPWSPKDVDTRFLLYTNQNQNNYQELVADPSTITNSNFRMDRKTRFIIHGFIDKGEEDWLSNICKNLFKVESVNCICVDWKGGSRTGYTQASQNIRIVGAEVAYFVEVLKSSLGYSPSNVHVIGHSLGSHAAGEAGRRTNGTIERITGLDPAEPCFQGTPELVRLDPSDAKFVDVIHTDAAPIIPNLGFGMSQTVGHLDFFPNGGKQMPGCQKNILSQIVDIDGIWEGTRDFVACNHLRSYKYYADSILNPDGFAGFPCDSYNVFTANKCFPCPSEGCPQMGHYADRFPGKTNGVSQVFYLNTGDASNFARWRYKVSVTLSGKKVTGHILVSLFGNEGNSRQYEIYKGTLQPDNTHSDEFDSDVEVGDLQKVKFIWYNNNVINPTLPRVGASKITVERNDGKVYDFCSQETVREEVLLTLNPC
Nature of the experiment: In Vitro Pancreatic Lipase Assay. The settings on record: pH 7.4; 37 °C. As to the method: The mixedsolution that composed of […] of 0.1mM 4-MU oleate, […] of the above-mentioned buffer and […] of test samples was prepared before adding lipase. The enzymatic reaction was started by adding 0.05mL of 1 U/mL pancreatic lipase and incubation was carried out for 20 min at 37 °C. The amount of 4-methylumbelliferon released by the enzyme was monitored at an emission of 450 nm and excitation wavelength of 320 nm using a fluorescence spectrophotometer.
Consider `COc1cc(O)cc(CCc2ccccc2O)c1` [2-(3-hydroxy-5-methoxyphenethyl)phenol], for which the half-maximal inhibitory concentration (IC50) stood at 30.1 µM and the Ki came out at 6.28 µM.

Take `O=C(/C=C/C=C/c1ccc(O)cc1)/C=C/c1ccc(O)cc1` [(1E,4E,6E)-1,7-bis(4-hydroxyphenyl)-1,4,6-heptatrien-3-one (19)]: half-maximal inhibition (IC50) required 16.4 µM and the Ki stood at 3.34 µM.

In turn, `COc1cc(CCc2ccccc2O)cc(OC)c1` [3,5-Dimethoxy-2'hydroxybibenzyl (7)] displayed an IC50 of 44.1 µM and a Ki of 9.28 µM.

Turning to `COc1cc(O)cc2c1OCCc1ccccc1-2` [9,10-Dihydro-4-methoxy-dibenzoxepin-2-ol (16)], the half-inhibitory concentration (IC50) was above 50 µM.

`COc1c(O)cccc1CCc1cc(O)cc(O)c1` [3,3',5-Trihydroxy-2'-methoxybibenzyl (3)]: it took 8.77 µM to reach half-maximal inhibition (IC50) and the inhibition constant Ki amounted to 1.82 µM.

The compound `COc1cc(/C=C/C(=O)OCCc2ccc(O)cc2)ccc1O` [p-hydroxyphenethyl trans-ferulate] registered a concentration for half-maximal inhibition (IC50) above 50 µM.

`COc1cc(/C=C/C=C/C(=O)CCc2ccc(O)cc2)ccc1O` [(4E,6E)-7-(4-hydroxy-3-methoxyphenyl)-1-(4-hydroxyphenyl)-4,6-heptadien-3-one (21)]: the 50% inhibitory concentration (IC50) was 11.1 µM and the inhibitory constant (Ki) was found to be 2.17 µM.

As to `COc1cc(CC[C@@H](O)C[C@H](O)CCc2ccc(O)c(OC)c2)ccc1O` [(3R,5R)-1,7-bis(4-hydroxy-3-methoxyphenyl)-3,5-heptanediol], the IC50 is above 50 µM.

The compound `COc1cc(O)c2c(c1)CCc1cc(O)ccc1-2` [2,5-Dihydroxy-7-methoxy-9,10-dihydrophenanthrene (14)] came in with an IC50 of 25.1 µM and an inhibitory constant (Ki) of 4.96 µM.

Consider `COc1cc(O)cc2c1-c1c(O)cccc1CC2` [Hircinol (13)], for which inhibition was half-maximal at 40.6 µM (IC50) and the affinity corresponds to a Ki of 8.57 µM.

The compound `Oc1cc(O)cc(CCc2ccccc2O)c1` [2',3,5-Trihydroxybibenzyl (2)] displayed an IC50 of 29.2 µM and a Ki of 6.45 µM.

`COc1cc(CCc2ccccc2)cc(OC)c1` [3,5-Dimethoxybibenzyl (8)] yielded an IC50 above 50 µM.

For `O=C(/C=C/c1ccc(O)cc1)OCCc1ccc(O)cc1`, the IC50 was 34.8 µM and the Ki was determined as 7.49 µM.

`COc1cc(CCc2ccccc2O)cc(O)c1OC` [3,4-Dimethoxy-2',5-dihydroxybibenzyl (9)] showed an IC50 above 50 µM.

Compound `Oc1ccc(CC[C@@H](O)C[C@H](O)CCc2ccc(O)cc2)cc1` [(3R,5R)-3,5-dihydroxy-1,7-bis(4-hydroxyphenyl)-3,5-heptanediol (22)] yielded an IC50 above 50 µM.

As to `COc1cc(CCc2cc(O)cc(O)c2)ccc1O` [Tristin (1)], the IC50 came to 13.5 µM and the affinity corresponds to a Ki of 2.75 µM.

In turn, `O=C(/C=C/C=C/c1ccc(O)cc1)CCc1ccc(O)cc1` [(4E,6E)-1,7-bis(4-hydroxyphenyl)-4,6-heptadien-3-one (20)] displayed an IC50 of 9.12 µM and a Ki of 1.92 µM.

`COc1cc(CCc2ccccc2O)cc(OC)c1OC` [Batatasin V (10)] gave a 50% inhibitory concentration (IC50) of 45.7 µM and an inhibition constant Ki of 9.66 µM.

The compound `Oc1cc(O)c2c(c1)-c1ccccc1CCO2` [9,10-Dihydro-dibenzoxepin-2,4-diol (15)] returned an IC50 above 50 µM.

`COc1cc2c(ccc3cc(O)cc(OC)c32)cc1O` [3,5-Dimethoxy-2,7-phenanthrenediol (11)] returned an IC50 of 12.7 µM and a Ki of 2.67 µM.

`COc1cc(OC)c2c(ccc3cc(OC)c(O)cc32)c1` [Batatasin I (12)] showed an IC50 above 50 µM.

In turn, `COc1cc(O)cc(CCc2cccc(O)c2)c1` [Batatasin III (4)] returned an IC50 of 32.3 µM and a Ki of 6.79 µM.

For orientation: IC50 means the midpoint of a concentration-inhibition curve. The low end stands for greater potency, the high end for weaker potency. The Ki is a measure of affinity in units of concentration, obtained from inhibition or displacement. Low readings indicate a stronger hold on the target, high ones a looser hold on the target.
